Data on two compounds can be found in publication PMC9287337 (Scientific Reports, 2022).

One data set deals with PI3K enzyme. Kind of data set: PI3K ELISA on PI3K immunoprecipitated from treated cells. In kind it is cell-based, mouse. The note with it: 10 µM, 15 min; for Amount of PIP3 produced by PI3K enzyme: control 0.61 pmol. As for the experimental part:
PI3K enzyme was immunoprecipitated and processed in a PI3K ELISA (Fig. 7B). […] The enzyme activity is expressed as the amount of product (PIP3) generated in each sample by the PI3K enzyme per minute of reaction.
C2C12 cells were seeded in 35-mm dishes at 7 × 10^4 cells/mL and incubated at 37 °C in 5% CO2 to reach 80% confluency. […] Cells (~ 10^6) per treatment were collected to prepare whole cell lysates followed by exposure to three freeze/thaw cycles in liquid nitrogen. The samples were centrifuged and PI3K enzyme was immunoprecipitated with a mouse monoclonal anti-PI3K p55 γ antibody ((E-9), Santa Cruz Biotechnology, Dallas, TX, USA) for 1 h at 4 °C with gentle rocking and the immune complexes were collected overnight on a rocking platform at 4 °C with Dynabeads™ Protein A (Life Technologies, Carlsbad, CA, USA). The next day, the immunoprecipitated PI3K enzyme was collected by centrifugation processed for a PI3K ELISA (Echelon Biosciences, Salt Lake, City, UT, USA) according to the manufacturer’s instructions. Standard solutions of PIP3 (0, 0.22, 0.67, 2, 6, 18, and 54 pmol) were added to kinase reactions using recombinant PI3K enzyme (Echelon Biosciences, Salt Lake, City, UT, USA) and used to generate a standard curve for production of PIP3. The optical density of the PIP3 standards and the reactions containing immunoprecipitated PI3K from treated samples was measured at 450 nm.
A general note: ELISA stands for enzyme-linked immunosorbent assay.

Data set [1] concerns p-Smad1/5/8 (Smad phosphorylation). The experiment in a line: Western blot of p-Smad normalized to total Smad. The following applies: Mus musculus, 0.5 h, 30 min, read-out: p-Smad level, percent of control. In kind it is cell-based. The method, then:
To investigate whether the new indolyl-benzimidazole compounds activate BMP receptor-dependent signaling pathways, the levels of p-Smad in serum-starved C2C12 cells, treated for 30 min with SY-LB-35 and SY-LB-57, were assessed by Western blot analysis. Whole cell lysates of treated C2C12 cells were probed for p-Smad using phospho-specific anti-Smad antibodies. p-Smad levels were normalized against total Smad levels.
C2C12 cells (3 mL) were seeded into 35 mm dishes at 7.5 × 10^4 cells/mL in complete growth medium, incubated to reach 80% confluence and serum-starved for 16–18 h. […] Thereafter, the cultures were washed with ice-cold 1X TBS for 2 min. Lysis Buffer (Cell Signaling Technology, Danvers, MA, USA) supplemented with 1 mM PMSF (phenylmethylsulphonyl fluoride) was added to the cultures and whole cell lysates were prepared.
Laemmli sample buffer (4X) was added to the whole cell lysates (20 µg) to a final concentration of 1X and heated at 100 °C for 5 min. The samples were immediately cooled on ice for 5 min and centrifuged at 9500 rpm for 2 min at RT. The samples and the Precision Plus Protein Standard (5 µL; Bio-Rad, Hercules, CA, USA) were loaded on 12% SDS polyacrylamide gels. Protein was separated using the Bio-Rad Mini Protean II Gel Electrophoresis System at 135 V. Meanwhile, 0.2 µm nitrocellulose membranes were pre-incubated in cold 1X Transfer Buffer (10 mM Tris/2.5 mM glycine/20% methanol) for at least 30 min. Next, the separated proteins were transferred at 100 V onto the pre-equilibrated nitrocellulose membranes for 1 h in Transfer Buffer, followed by blocking in 5% BSA/0.1% Tween 20/1X TBS for 30 min. The membranes were incubated overnight at 4 °C with the desired primary rabbit monoclonal antibody (p-Smad1/5(S463/465)/9(S465/467), Smad1 (D5907) XP®, p-Akt (Ser473) (D9E) XP®, or Akt (pan) (C67E7), p-SAPK/JNK (Thr183/Tyr185), SAPK/JNK, β-actin (Cell Signaling Technologies, Danvers, MA, USA)) or rabbit polyclonal antibody (phospho-PI3 Kinase p85 (Tyr458)/p55 (Tyr199) antibody (Cell Signaling Technologies, Danvers, MA, USA), p-p38 MAPK, p38 MAPK, p-ERK1, ERK1/2) (Abclonal, Woburn, MA, USA)) in Antibody Dilution Buffer (1% BSA/0.1% Tween 20/1X TBS) and then washed with 1X TBST (0.1% Tween 20/1X TBS) three times for 15 min. HRP-conjugated Goat Anti-Rabbit IgG secondary antibody (Santa Cruz Biotechnology, Inc., Dallas, TX, USA) in Antibody Dilution Buffer was added to the membranes for 1 h at RT followed by three 15-min washes with 1X TBST. Finally, the blots were developed using SuperSignal ™ West Femto HRP Substrate solutions (Thermo Scientific, Rockford, IL, USA) and analysed using the Omega Lum™ G Imaging System (San Francisco, CA, USA). Quantification of chemiluminescent signals was carried out using ImageJ (Image Processing and Analysis in Java 1.8.0_112).
(In general: A western blot detects proteins with antibodies after separation by electrophoresis.)

A further data set deals with C2C12 cells. The experiment in a line: RealTime-Glo MT cell viability assay. The following applies: for Increase in cell viability over control / Decrease in cell viability compared with control: 24 h; for IC50: non-linear regression, read-out: IC50 (concentration at which cell viability is reduced by 50%). In kind it is cell-based, mouse. As for the experimental part: (§1) To first determine how these novel compounds effect the health of C2C12 cells and to establish the range of subtoxic concentrations for future studies, cell viability assays were carried out. Serum-starved C2C12 cells were exposed to increasing concentrations (0.01–1000 µM) of SY-LB-35 and SY-LB-57 for 24 h. Exposure to Triton X-100 (125 µM) is toxic to cells and was used as a negative control for cell viability. Following the 24-h exposure period, the MT Cell viability substrate was added to the cultures. Only viable cells can reduce the substrate and, thereby, generate a luminescent signal. Any decrease in luminescence was considered an indication of cell death or toxicity.
(§2) C2C12 cells (100 µL) were seeded in a 96-well plate at 5 × 10^5 cells/mL and incubated overnight in complete growth media to achieve 80% confluency followed by serum-starvation for 16–18 h.
(§3) Next, reagents from the RealTime-Glo™ MT Cell Viability Assay Kit (Promega, Madison, WI, USA) were diluted in SS medium and used according to manufacturer’s protocol. Cellular luminescence was measured using the FilterMax F5 Multi-mode Microplate Reader (Molecular Devices, San Jose, CA, USA). Data from three independent experiments with individual experiments carried out in triplicate was determined and reported as a percentage of control.

Data set [2] in a line: RealTime-Glo MT cell viability assay. In kind it is cell-based, mouse. The note with it: mouse, serum-starved C2C12 cells, 24 h, serum-starved C2C12, read-out: Cell viability, percent of luminescence in control untreated cells. The method, then: as §1, §2, §3

Each structure is given as a SMILES string. Like-named read-outs stand apart in the source and are kept apart here. Bounds are passed on as bounds.

By viability is commonly meant a read-out of living cells in per cent, often relative to untreated cells.

With `Oc1ccc2[nH]c(-c3nc4ccccc4[nH]3)cc2c1` [SY-LB-35], in the data set with PI3K enzyme, the “PIP3 produced, higher compared to control untreated cells” value is recorded as 26% and the “Amount of PIP3 produced by PI3K enzyme” value amounted to 0.77 pmol. In data set [1], the activity at 0.01 µM is 150%, the activity at 0.1 µM was 170%, the activity at 1 µM was 282% and the activity at 10 µM came to 188%. In the data set on C2C12 cells (0.01 µM), the “Increase in cell viability over control” value was 150 % over control. Also, the “Increase in cell viability over control” value with C2C12 cells (0.1 µM) is on record as 150 % over control. The “Increase in cell viability over control” value in the data set with C2C12 cells (1 µM) turned out to be 120 % over control. For the same compound, the “Decrease in cell viability compared with control” value with C2C12 cells (100 µM) amounted to 30 % decrease. Besides, in the data set with C2C12 cells (1 mM), the “Decrease in cell viability compared with control” value worked out at 80 % decrease. Also, in the data set on C2C12 cells (C2C12, 24 h), the IC50 was 401 µM. In addition, the IC50 with C2C12 cells (Mus musculus, C2C12, 24 h) is 401 µM. Also, in data set [2], the viability at 24 h, 0.01 µM was 241%; the viability at 24 h, 0.1 µM amounted to 244%; the viability at 24 h, 1 µM is 218%; the viability at 24 h, 10 µM was determined as 137%. In addition, in data set [2], the viability at 24 h, 100 µM is 69% and the viability at 24 h, 1 mM is 13%.

As to `COc1ccc2[nH]c(-c3nc4ccccc4[nH]3)cc2c1` [SY-LB-57], in the data set on PI3K enzyme, the “PIP3 produced, higher compared to control untreated cells” value is recorded as 26% and the “Amount of PIP3 produced by PI3K enzyme” value is given as 0.77 pmol. In data set [1], the activity at 0.01 µM is 234%, the activity at 0.1 µM came out at 316%, the activity at 1 µM was found to be 276% and the activity at 10 µM was determined as 357%. Also, in the data set on C2C12 cells (C2C12, 24 h), the “Non-toxic / safe concentrations” value was at most 10 µM and the IC50 was found to be 808 µM. Moreover, the IC50 with C2C12 cells (Mus musculus, C2C12, 24 h) came out at 808 µM. Moreover, in data set [2], the viability at 24 h, 0.01 µM was 390%; the viability at 24 h, 0.1 µM was 394%; the viability at 24 h, 1 µM came out at 301%; the viability at 24 h, 10 µM turned out to be 251%. Also, in data set [2], the viability at 24 h, 100 µM was determined as 151% and the viability at 24 h, 1 mM is 20%.
